Assay results published in patent US20040044006A1, “Methods of use of quinolone compounds against pneumococcal and haemophilus bacteria” (priority 1999, published 2004).
In brackets after ≈: the same amount, converted by molar mass. Read-outs that look alike come from different tables or passages of the source.

Tests used:
[1] = test system: pneumococcal strains; assay: Microbroth dilution MICs of strains tested by time-kill and PAE; type: cell-based; details: Streptococcus pneumoniae, read-out: Microdilution MIC
Outline: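 S. pneumoniae ATCC 49619 served as control in each run. For the 12 time-kill and 6 PAE strains, MICs came from NCCLS microbroth dilution using cation-adjusted Mueller-Hinton broth plus 5% lysed defibrinated horse blood.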

[2] = test system: quinolone susceptible pneumococci (ciprofloxacin MICs ≦4.0 μg/ml); assay: Agar dilution MICs of 207 quinolone susceptible pneumococcal strains; type: cell-based, Streptococcus pneumoniae; details: Streptococcus pneumoniae, agar dilution; for MIC90: read-out: MIC90; for MIC: read-out: MIC range
Outline: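 Agar dilution MICs by prior methods on Mueller-Hinton agar with 5% sheep blood; S. pneumoniae ATCC 49619 among QC strains each run. Isolates were recent U.S. strains plus some from South Africa, Europe and Korea.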

[3] = test system: pneumococci with ciprofloxacin MICs ≧8 μg/ml; assay: Quinolone agar dilution MICs of 28 ciprofloxacin resistant pneumococcal strains, correlated with QRDR mutations; type: cell-based, Streptococcus pneumoniae
Experimental: Additionally these strains were tested for mutations in parC, gyrA, parE, and gyrB (Pan, et al. Antimicrob. Agents Chemother. 40:2321-2326, 1996) and for efflux mechanism (Brenwald, et ail., Antimicrob. Agents Chemother. 42:2032-2035, 1998).
Gemifloxacin susceptibility powder was obtained from SmithKline Beecham Laboratories, Harlow, UK. Agar dilution methodology was performed on 28 strains as described previously (M. R. Jacobs, Clin. Infect. Dis. 15: 119-127, […] and M. R. Jacobs, Rev. Med. Microbiol. 6:77-93, 1995), using Mueller-Hinton altar (BBL Microbiology Systems, Cockeysville, Md.) supplemented with 5% sheep blood. Standard quality control strains, including Streptococcus pneumoniae ATCC 49619, were included in each run of agar dilution MICs.

For N[C@@H]1[C@H]2CN(c3nc4c(cc3F)c(=O)c(C(=O)O)cn4-c3ccc(F)cc3F)C[C@@H]12 [Trovafloxacin, trovafloxacin], the MIC ([1]; strain 1 (S) penicillin susceptible) was 0.06 µg/mL (≈ 0.144 µM), the MIC ([1]; strain 2 (S) penicillin susceptible) was 0.06 µg/mL (≈ 0.144 µM) and the MIC ([1]; strain 3 (S) penicillin susceptible, quinolone-resistant) was 8 µg/mL (≈ 19.2 µM). The MIC ([1]; strain 4 (S) penicillin susceptible, quinolone-resistant) was 4 µg/mL (≈ 9.61 µM), the MIC ([1]; strain 5 (I) penicillin intermediate) was 0.06 µg/mL (≈ 0.144 µM) and the MIC ([1]; strain 6 (I) penicillin intermediate) was 0.06 µg/mL (≈ 0.144 µM). For the same compound, the MIC ([1]; strain 7 (I) penicillin intermediate) was 0.06 µg/mL (≈ 0.144 µM), the MIC ([1]; strain 8 (I) penicillin intermediate) was 0.125 µg/mL (≈ 0.3 µM) and the MIC ([1]; strain 9 (R) penicillin resistant) was 0.125 µg/mL (≈ 0.3 µM). For the same compound, the MIC ([1]; strain 10 (I)) was 0.06 µg/mL (≈ 0.144 µM), the MIC ([1]; strain 11 (R) penicillin resistant) was 0.06 µg/mL (≈ 0.144 µM) and the MIC ([1]; strain 12 (R) penicillin resistant) was 0.125 µg/mL (≈ 0.3 µM). For the same compound, the MIC50 ([2]; Penicillin I strains) was 0.125 µg/mL (≈ 0.3 µM), the MIC90 ([2]; Penicillin I strains) was 0.25 µg/mL (≈ 0.6 µM) and the MIC ([2]; Penicillin I strains) was 0.016 to 1 µg/mL (≈ 0.0384 to 2.4 µM). For the same compound, the MIC50 ([2]; Penicillin R strains) was 0.125 µg/mL (≈ 0.3 µM), the MIC90 ([2]; Penicillin R strains) was 0.25 µg/mL (≈ 0.6 µM) and the MIC ([2]; Penicillin R strains) was 0.03 to 0.25 µg/mL (≈ 0.0721 to 0.6 µM). It also gave an MIC50 ([2]; Penicillin S strains) of 0.125 µg/mL (≈ 0.3 µM), an MIC90 ([2]; Penicillin S strains) of 0.25 µg/mL (≈ 0.6 µM) and an MIC ([2]; Penicillin S strains) of 0.03 to 0.5 µg/mL (≈ 0.0721 to 1.2 µM). It also gave an MIC90 ([2]; all 207 strains (64 penicillin susceptible, 68 intermediate, 75 resistant)) of 0.25 µg/mL (≈ 0.6 µM), an MIC50 ([3]; Streptococcus pneumoniae) of 1 µg/mL (≈ 2.4 µM) and an MIC90 ([3]; Streptococcus pneumoniae) of 4 µg/mL (≈ 9.61 µM). For the same compound, the MIC ([3]; Streptococcus pneumoniae, read-out: MICs in strains with three or four QRDR mutations, 20 strains, bound holds in all 20 (ciprofloxacin, levofloxacin, sparfloxacin), 19 (grepafloxacin), 10 (trovafloxacin), 18 (gemifloxacin)) was > 2 µg/mL, the MIC ([3]; Streptococcus pneumoniae, read-out: MICs in strains with three or four QRDR mutations, 21 strains, bound holds in all 21 (ciprofloxacin, levofloxacin, sparfloxacin), 20 (grepafloxacin), 11 (trovafloxacin), 19 (gemifloxacin)) was ≥ 2 µg/mL and the MIC ([3]; Streptococcus pneumoniae, strain 1, ParC S79-F, ParE I460-V, GyrA S81-F, GyrB None) was 2 µg/mL (≈ 4.8 µM). The MIC ([3]; Streptococcus pneumoniae, strain 1, ParC S79-F, ParE I460-V, GyrA S83-F, GyrB None) was 2 µg/mL (≈ 4.8 µM), the MIC ([3]; Streptococcus pneumoniae, strain 2, ParC S79-Y, ParE I460-V, GyrA None, GyrB None) was 0.25 µg/mL (≈ 0.6 µM) and the MIC ([3]; Streptococcus pneumoniae, strain 3, ParC D83-N, ParE I460-V, GyrA S81-F, GyrB None) was 0.25 µg/mL (≈ 0.6 µM). It also gave an MIC ([3]; Streptococcus pneumoniae, strain 3, ParC D83-N, ParE I460-V, GyrA S83-F, GyrB None) of 0.25 µg/mL (≈ 0.6 µM), an MIC ([3]; Streptococcus pneumoniae, strain 4, ParC S79-F, ParE I460-V, GyrA S81-F, GyrB None) of 0.25 µg/mL (≈ 0.6 µM) and an MIC ([3]; Streptococcus pneumoniae, strain 4, ParC S79-F, ParE I460-V, GyrA S83-F, GyrB None) of 0.25 µg/mL (≈ 0.6 µM). The MIC ([3]; Streptococcus pneumoniae, strain 5, ParC R95-C, ParE D435-N, GyrA S81-F, GyrB None) was 0.25 µg/mL (≈ 0.6 µM), the MIC ([3]; Streptococcus pneumoniae, strain 5, ParC R95-C, ParE D435-N, GyrA S83-F, GyrB None) was 0.25 µg/mL (≈ 0.6 µM) and the MIC ([3]; Streptococcus pneumoniae, strain 6, ParC S79-Y, ParE I460-V, GyrA E85-K, GyrB None) was 2 µg/mL (≈ 4.8 µM). It also gave an MIC ([3]; Streptococcus pneumoniae, strain 6, ParC S79-Y, ParE I460-V, GyrA E87-K, GyrB None) of 2 µg/mL (≈ 4.8 µM), an MIC ([3]; Streptococcus pneumoniae, strain 7, ParC None, ParE I460-V, GyrA None, GyrB None) of 0.5 µg/mL (≈ 1.2 µM) and an MIC ([3]; Streptococcus pneumoniae, strain 8, ParC S79-Y, ParE None, GyrA None, GyrB None) of 0.5 µg/mL (≈ 1.2 µM). For the same compound, the MIC ([3]; Streptococcus pneumoniae, strain 9, ParC S79-Y, ParE None, GyrA None, GyrB None) was 1 µg/mL (≈ 2.4 µM), the MIC ([3]; Streptococcus pneumoniae, strain 10, ParC S79-F, ParE I460-V, GyrA S81-C, GyrB None) was 1 µg/mL (≈ 2.4 µM) and the MIC ([3]; Streptococcus pneumoniae, strain 10, ParC S79-F, ParE I460-V, GyrA S83-C, GyrB None) was 1 µg/mL (≈ 2.4 µM). It also gave an MIC ([3]; Streptococcus pneumoniae, strain 11, ParC S79-F, ParE I460-V, GyrA S81-F, GyrB None) of 1 µg/mL (≈ 2.4 µM), an MIC ([3]; Streptococcus pneumoniae, strain 11, ParC S79-F, ParE I460-V, GyrA S83-F, GyrB None) of 1 µg/mL (≈ 2.4 µM) and an MIC ([3]; Streptococcus pneumoniae, strain 12, ParC S79-F, ParE I460-V, GyrA None, GyrB D435-N) of 1 µg/mL (≈ 2.4 µM). It also gave an MIC ([3]; Streptococcus pneumoniae, strain 13, ParC S79-F, ParE I460-V, GyrA None, GyrB E474-K) of 1 µg/mL (≈ 2.4 µM), an MIC ([3]; Streptococcus pneumoniae, strain 14, ParC S79-F, ParE I460-V, GyrA S81-F, GyrB None) of 1 µg/mL (≈ 2.4 µM) and an MIC ([3]; Streptococcus pneumoniae, strain 14, ParC S79-F, ParE I460-V, GyrA S83-F, GyrB None) of 1 µg/mL (≈ 2.4 µM). The MIC ([3]; Streptococcus pneumoniae, strain 15, ParC 79-F, ParE I460-V, GyrA S83-F, GyrB None) was 1 µg/mL (≈ 2.4 µM), the MIC ([3]; Streptococcus pneumoniae, strain 15, ParC S79-F, ParE I460-V, GyrA S81-F, GyrB None) was 1 µg/mL (≈ 2.4 µM) and the MIC ([3]; Streptococcus pneumoniae, strain 16, ParC S79-F, ParE I460-V, GyrA S81-F, GyrB None) was 2 µg/mL (≈ 4.8 µM). The MIC ([3]; Streptococcus pneumoniae, strain 16, ParC S79-F, ParE I460-V, GyrA S83-F, GyrB None) was 2 µg/mL (≈ 4.8 µM), the MIC ([3]; Streptococcus pneumoniae, strain 17, ParC D83-N, ParE None, GyrA S81-F, GyrB None) was 2 µg/mL (≈ 4.8 µM) and the MIC ([3]; Streptococcus pneumoniae, strain 17, ParC D83-N, ParE None, GyrA S83-F, GyrB None) was 2 µg/mL (≈ 4.8 µM). The MIC ([3]; Streptococcus pneumoniae, strain 18, ParC S79-F, ParE I460-V, GyrA S81-F, GyrB None) was 2 µg/mL (≈ 4.8 µM), the MIC ([3]; Streptococcus pneumoniae, strain 18, ParC S79-F, ParE I460-V, GyrA S83-F, GyrB None) was 2 µg/mL (≈ 4.8 µM) and the MIC ([3]; Streptococcus pneumoniae, strain 19, ParC S79-F, ParE I460-V, GyrA S81-F, GyrB None) was 2 µg/mL (≈ 4.8 µM). The MIC ([3]; Streptococcus pneumoniae, strain 19, ParC S79-F, ParE I460-V, GyrA S83-F, GyrB None) was 2 µg/mL (≈ 4.8 µM), the MIC ([3]; Streptococcus pneumoniae, strain 20, ParC S79-F, ParE I460-V, GyrA E85-K, GyrB None) was 2 µg/mL (≈ 4.8 µM) and the MIC ([3]; Streptococcus pneumoniae, strain 20, ParC S79-F, ParE I460-V, GyrA E87-K, GyrB None) was 2 µg/mL (≈ 4.8 µM). The MIC ([3]; Streptococcus pneumoniae, strain 21, ParC S79-F, ParE I460-V, GyrA S81-F, GyrB None) was 1 µg/mL (≈ 2.4 µM), the MIC ([3]; Streptococcus pneumoniae, strain 21, ParC S79-F, ParE I460-V, GyrA S83-F, GyrB None) was 1 µg/mL (≈ 2.4 µM) and the MIC ([3]; Streptococcus pneumoniae, strain 22, ParC S79-F, ParE I460-V, GyrA S81-Y, GyrB None) was 2 µg/mL (≈ 4.8 µM). For the same compound, the MIC ([3]; Streptococcus pneumoniae, strain 22, ParC S79-F, ParE I460-V, GyrA S83-Y, GyrB None) was 2 µg/mL (≈ 4.8 µM), the MIC ([3]; Streptococcus pneumoniae, strain 23, ParC S79-Y, ParE None, GyrA S81-A, GyrB None) was 2 µg/mL (≈ 4.8 µM) and the MIC ([3]; Streptococcus pneumoniae, strain 23, ParC S79-Y, ParE None, GyrA S83-A, GyrB None) was 2 µg/mL (≈ 4.8 µM). It also gave an MIC Range ([3]; agar dilution, 28 strains with ciprofloxacin MICs ≧8.0 μg/ml) of 0.25 to 8 µg/mL.
